Values quoted from earlier work, collected in patent US7160555B2, “Immediate release medicinal compositions for oral use” (Kissei Pharmaceutical Co., Ltd., priority 1999, dated 2007).

Test system: blood sugar
Conditions: Japanese Patent Laid-Open No. 356459/1992

Substance: (2S)-2-benzyl-3-(cis-hexahydro-2-iso-indolinylcarbonyl)propionic acid
- lowering action of blood sugar: remarkable lowering action of blood sugar
